These results are taken from PMC5363571 (Oncotarget, 2016).

Each structure is given as a SMILES string. Where a name gives a salt, the structure may show the parent alone.

The target in this assay is USP7 (Homo sapiens, UniProt Q93009). Description: biochemical. To be noted: read-out: % Inhibition at 50 μM. On the set-up: Ub-AMC hydrolysis by recombinant USP7 (20 nM), 30 min pre-incubation, fluorescence read-out.
Sequence of USP7 (Q93009 whole entry): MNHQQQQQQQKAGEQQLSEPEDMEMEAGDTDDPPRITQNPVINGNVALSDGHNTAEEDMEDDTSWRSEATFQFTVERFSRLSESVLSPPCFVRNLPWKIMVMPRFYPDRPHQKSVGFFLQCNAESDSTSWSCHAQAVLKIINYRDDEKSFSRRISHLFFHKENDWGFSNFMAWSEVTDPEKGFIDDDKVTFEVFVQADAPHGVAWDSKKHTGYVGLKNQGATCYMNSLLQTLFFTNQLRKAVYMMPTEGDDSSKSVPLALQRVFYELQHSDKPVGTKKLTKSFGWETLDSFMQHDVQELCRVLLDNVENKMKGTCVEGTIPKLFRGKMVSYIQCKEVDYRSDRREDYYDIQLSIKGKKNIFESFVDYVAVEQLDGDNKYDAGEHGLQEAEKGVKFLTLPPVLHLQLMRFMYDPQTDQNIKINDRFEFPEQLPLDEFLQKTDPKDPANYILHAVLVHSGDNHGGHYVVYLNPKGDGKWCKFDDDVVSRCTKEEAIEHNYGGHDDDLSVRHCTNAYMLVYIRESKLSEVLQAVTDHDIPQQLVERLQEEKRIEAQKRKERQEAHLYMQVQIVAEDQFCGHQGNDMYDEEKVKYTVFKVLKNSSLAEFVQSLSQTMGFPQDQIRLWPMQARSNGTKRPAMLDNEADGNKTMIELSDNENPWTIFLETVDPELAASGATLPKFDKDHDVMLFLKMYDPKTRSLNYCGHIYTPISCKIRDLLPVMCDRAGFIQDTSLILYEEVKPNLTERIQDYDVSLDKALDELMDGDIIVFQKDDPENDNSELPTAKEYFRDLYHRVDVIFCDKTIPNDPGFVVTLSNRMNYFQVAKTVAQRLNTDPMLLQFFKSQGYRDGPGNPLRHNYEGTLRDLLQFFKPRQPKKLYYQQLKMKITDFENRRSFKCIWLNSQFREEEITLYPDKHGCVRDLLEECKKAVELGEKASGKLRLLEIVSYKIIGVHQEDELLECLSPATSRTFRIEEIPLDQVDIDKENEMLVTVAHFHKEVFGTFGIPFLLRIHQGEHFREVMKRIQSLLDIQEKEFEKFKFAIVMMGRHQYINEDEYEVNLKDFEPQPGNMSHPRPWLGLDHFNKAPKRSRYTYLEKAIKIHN
One may read the inhibition as the change of the read-out against control, counted positive when it falls. On to `CCN(CC)CCNC(=O)c1cc(Cl)c(N)cc1OC` [Metoclopramide HCl], for which the inhibition at 50 µM is less than 5%. Then `NC12CC3CC(CC(C3)C1)C2` [Amantadine HCl], with less than 5%.

As to `CCCCCCCCCCCCCCCCOP(=O)([O-])OCC[N+](C)(C)C` [Miltefosine], the inhibition at 50 µM is 6.5%. To `COc1c(C)c2c(c(O)c1C/C=C(\C)CCC(=O)O)C(=O)OC2` [Mycophenolic acid] belongs less than 5%; to `Cc1ncc([N+](=O)[O-])n1CCO` [Metronidazole], less than 5%. Then `CCCCC[C@H](O)/C=C/[C@H]1[C@H](O)CC(=O)[C@@H]1CCCCCCC(=O)O` [Alprostadil], with less than 5%; and `CN1CCN(CC(=O)N2c3ccccc3C(=O)Nc3cccnc32)CC1` [Pirenzepine 2HCl], with less than 5%. Then `COC(=O)C1=C(C)NC(C)=C(C(=O)OCCN2CCN(C(c3ccccc3)c3ccccc3)CC2)C1c1cccc([N+](=O)[O-])c1` (stereo not shown) [Manidipine], with less than 5%; and `CC(C)(C)NCC(O)c1ccccc1Cl` (stereo not shown) [Tulobuterol], with 16.5%.

As to `CC(C)(C)NCC(O)c1cc(Cl)c(N)c(Cl)c1` (stereo not shown) [Clenbuterol], the inhibition at 50 µM is less than 5%. Turning to `COC(=O)c1ccc(O)c2nc3c(C=O)c(O)cc(O)c3nc12` [Lomofungin], the inhibition at 50 µM was less than 5%. Then `Cc1[nH]c(=O)c(C#N)cc1-c1ccncc1` [Milrinone], with less than 5%; and `CCCCn1c(=O)c2c(ncn2CC(C)=O)n(CCCC)c1=O` [Denbufylline], with less than 5%. For `CN(CCOc1ccc(CC2SC(=O)NC2=O)cc1)c1ccccn1` (stereo not shown) [Rosiglitazone maleate], the inhibition at 50 µM was less than 5%. Regarding `CO[C@H](C(=O)[C@@H](O)[C@@H](C)O)[C@@H]1Cc2cc3cc(O[C@H]4C[C@@H](O[C@@H]5C[C@@H](O)[C@H](O)[C@@H](C)O5)[C@H](O)[C@@H](C)O4)c(C)c(O)c3c(O)c2C(=O)[C@H]1O[C@H]1C[C@@H](O[C@@H]2C[C@@H](O)[C@@H](O[C@@H]3C[C@](C)(O)[C@H](O)[C@@H](C)O3)[C@@H](C)O2)[C@H](O)[C@@H](C)O1` [Plicamycin], the inhibition at 50 µM was less than 5%. Then `COc1ccc2c(c1)[C@]13CCCC[C@@H]1[C@H](C2)N(C)CC3` [Dextromethorphan HBr], with 41.3%; and `Cn1ccnc1S` [Methimazole], with less than 5%. For `CC(=O)O[C@@]12CO[C@@H]1C[C@H](O)[C@@]1(C)C(=O)[C@H](O)C3=C(C)[C@@H](OC(=O)[C@H](O)[C@@H](NC(=O)OC(C)(C)C)c4ccccc4)C[C@@](O)([C@@H](OC(=O)c4ccccc4)[C@H]21)C3(C)C` [Docetaxil], the inhibition at 50 µM is less than 5%. Then `C#C[C@]1(O)CC[C@H]2[C@@H]3CCC4=CC(=O)CCC4=C3C=C[C@@]21CC` [Gestrinone], with less than 5%. Then `C[C@@H]1CCC[C@H](C)N1NC(=O)c1ccc(Cl)c(S(N)(=O)=O)c1` [Clopamide], with less than 5%; and `O=C1NCN(c2ccccc2)C12CCN(CCCC(c1ccc(F)cc1)c1ccc(F)cc1)CC2` [Fluspirilene], with less than 5%.

As for `O=C(CCCCCCC(=O)Nc1ccccc1)NO` [Vorinostat], the inhibition at 50 µM is less than 5%. For `CCOC(=O)C1=C[C@]2(CC)CCCN3CCc4c(n1c1ccccc41)[C@@H]32` [Vinpocetine], the inhibition at 50 µM is 38.5%. Then `CC(=O)[C@H]1CC[C@H]2[C@@H]3CC=C4C[C@@H](O)CC[C@]4(C)[C@H]3CC[C@]12C` [Pregnenolone], with less than 5%. For `C[N+]1(C)[C@@H]2C[C@@H](OC(=O)C(O)(c3cccs3)c3cccs3)C[C@H]1[C@@H]1O[C@@H]12` [Tiotropium Br], the inhibition at 50 µM was less than 5%. On to `NCC1(CC(=O)O)CCCCC1` [Gabapentin], for which the inhibition at 50 µM is less than 5%. With `O=C(O)c1ccccc1Nc1cccc(C(F)(F)F)c1` [Flufenamic acid], the inhibition at 50 µM was less than 5%.

On to `CCCCC(C#N)(Cn1cncn1)c1ccc(Cl)cc1` (stereo not shown) [Myclobutanil], for which the inhibition at 50 µM was less than 5%.
